# Reference: ChEMBL document CHEMBL3045835, “Comparative study of conventional and microwave-assisted synthesis of some Schiff bases and their potential as antimicrobial agents” (2012)
# Key:
# Format in all cases: functional
# Escherichia coli [1] = assay: Antibacterial activity against Escherichia coli MTCC 1573 after 24 hr by broth dilution method; conditions: MTCC 1573, 24 h
# Bacillus pumilus [2] = assay: Antibacterial activity against Bacillus pumilus MTCC 1456 at 100 ug/ml after 18 hr by cup-plate method; conditions: MTCC 1456, 18 h, read-out: DIZ
# Pseudomonas aeruginosa [3] = assay: Antibacterial activity against Pseudomonas aeruginosa MTCC 424 at 100 ug/ml after 18 hr by cup-plate method; conditions: MTCC 424, 18 h, read-out: DIZ
# Pseudomonas fluorescens [4] = assay: Antibacterial activity against Pseudomonas fluorescens MTCC 2421 after 24 hr by broth dilution method; conditions: MTCC 2421, 24 h
# Micrococcus luteus [5] = assay: Antibacterial activity against Micrococcus luteus MTCC 1538 after 24 hr by broth dilution method; conditions: MTCC 1538, 24 h
# Bacillus subtilis [6] = assay: Antibacterial activity against Bacillus subtilis MTCC 441 after 24 hr by broth dilution method; conditions: MTCC 441, 24 h
# Bacillus subtilis [7] = assay: Antibacterial activity against Bacillus subtilis MTCC 441 at 100 ug/ml after 18 hr by cup plate method; conditions: MTCC 441, 18 h, read-out: DIZ
# Staphylococcus aureus [8] = assay: Antibacterial activity against Staphylococcus aureus MTCC 1430 after 24 hr by broth dilution method; conditions: MTCC 1430, 24 h
# Pseudomonas aeruginosa [9] = assay: Antibacterial activity against Pseudomonas aeruginosa MTCC 424 after 24 hr by broth dilution method; conditions: MTCC 424, 24 h
# Escherichia coli [10] = assay: Antibacterial activity against Escherichia coli MTCC 1573 at 100 ug/ml after 18 hr by cup-plate method; conditions: MTCC 1573, 18 h, read-out: DIZ
# Pseudomonas fluorescens [11] = assay: Antibacterial activity against Pseudomonas fluorescens MTCC 2421 at 100 ug/ml after 18 hr by cup-plate method; conditions: MTCC 2421, 18 h, read-out: DIZ
# Bacillus pumilus [12] = assay: Antibacterial activity against Bacillus pumilus MTCC 1456 after 24 hr by broth dilution method; conditions: MTCC 1456, 24 h
# Micrococcus luteus [13] = assay: Antibacterial activity against Micrococcus luteus MTCC 1538 at 100 ug/ml after 18 hr by cup-plate method; conditions: MTCC 1538, 18 h, read-out: DIZ
# Staphylococcus aureus [14] = assay: Antibacterial activity against Staphylococcus aureus MTCC 1430 at 100 ug/ml after 18 hr by cup-plate method; conditions: MTCC 1430, 18 h, read-out: DIZ
# Penicillium chrysogenum [15] = assay: Antifungal activity against Penicillium chrysogenum MTCC 161 at 100 ug/ml after 18 hr by cup-plate method; conditions: MTCC 161, 18 h, read-out: DIZ
# Aspergillus niger [16] = assay: Antifungal activity against Aspergillus niger MTCC 2546 at 100 ug/ml after 18 hr by cup-plate method; conditions: MTCC 2546, 18 h, read-out: DIZ
# Penicillium chrysogenum [17] = assay: Antifungal activity against Penicillium chrysogenum MTCC 161 after 24 hr by broth dilution method; conditions: MTCC 161, 24 h
# Penicillium chrysogenum [18] = assay: Antifungal activity against Penicillium chrysogenum MTCC 161 at 500 ug/ml after 18 hr by cup-plate method; conditions: MTCC 161, 18 h, read-out: DIZ
# Aspergillus niger [19] = assay: Antifungal activity against Aspergillus niger MTCC 2546 at 1000 ug/ml after 18 hr by cup-plate method; conditions: MTCC 2546, 18 h, read-out: DIZ
# Pseudomonas fluorescens [20] = assay: Antibacterial activity against Pseudomonas fluorescens MTCC 2421 at 200 ug/ml after 18 hr by cup-plate method; conditions: MTCC 2421, 18 h, read-out: DIZ
# Penicillium chrysogenum [21] = assay: Antifungal activity against Penicillium chrysogenum MTCC 161 at 1500 ug/ml after 18 hr by cup-plate method; conditions: MTCC 161, 18 h, read-out: DIZ
# Staphylococcus aureus [22] = assay: Antibacterial activity against Staphylococcus aureus MTCC 1430 at 1000 ug/ml after 18 hr by cup-plate method; conditions: MTCC 1430, 18 h, read-out: DIZ
# Penicillium chrysogenum [23] = assay: Antifungal activity against Penicillium chrysogenum MTCC 161 at 1000 ug/ml after 18 hr by cup-plate method; conditions: MTCC 161, 18 h, read-out: DIZ
# Pseudomonas fluorescens [24] = assay: Antibacterial activity against Pseudomonas fluorescens MTCC 2421 at 1000 ug/ml after 18 hr by cup-plate method; conditions: MTCC 2421, 18 h, read-out: DIZ
# Micrococcus luteus [25] = assay: Antibacterial activity against Micrococcus luteus MTCC 1538 at 1500 ug/ml after 18 hr by cup-plate method; conditions: MTCC 1538, 18 h, read-out: DIZ
# Bacillus pumilus [26] = assay: Antibacterial activity against Bacillus pumilus MTCC 1456 at 1000 ug/ml after 18 hr by cup-plate method; conditions: MTCC 1456, 18 h, read-out: DIZ
# Pseudomonas fluorescens [27] = assay: Antibacterial activity against Pseudomonas fluorescens MTCC 2421 at 500 ug/ml after 18 hr by cup-plate method; conditions: MTCC 2421, 18 h, read-out: DIZ
# Micrococcus luteus [28] = assay: Antibacterial activity against Micrococcus luteus MTCC 1538 at 1000 ug/ml after 18 hr by cup-plate method; conditions: MTCC 1538, 18 h, read-out: DIZ
# Bacillus pumilus [29] = assay: Antibacterial activity against Bacillus pumilus MTCC 1456 at 1500 ug/ml after 18 hr by cup-plate method; conditions: MTCC 1456, 18 h, read-out: DIZ
# Staphylococcus aureus [30] = assay: Antibacterial activity against Staphylococcus aureus MTCC 1430 at 500 ug/ml after 18 hr by cup-plate method; conditions: MTCC 1430, 18 h, read-out: DIZ
# Pseudomonas fluorescens [31] = assay: Antibacterial activity against Pseudomonas fluorescens MTCC 2421 at 1500 ug/ml after 18 hr by cup-plate method; conditions: MTCC 2421, 18 h, read-out: DIZ
# Staphylococcus aureus [32] = assay: Antibacterial activity against Staphylococcus aureus MTCC 1430 at 1500 ug/ml after 18 hr by cup-plate method; conditions: MTCC 1430, 18 h, read-out: DIZ
# Micrococcus luteus [33] = assay: Antibacterial activity against Micrococcus luteus MTCC 1538 at 200 ug/ml after 18 hr by cup-plate method; conditions: MTCC 1538, 18 h, read-out: DIZ
# Pseudomonas aeruginosa [34] = assay: Antibacterial activity against Pseudomonas aeruginosa MTCC 424 at 1500 ug/ml after 18 hr by cup-plate method; conditions: MTCC 424, 18 h, read-out: DIZ
# Escherichia coli [35] = assay: Antibacterial activity against Escherichia coli MTCC 1573 at 1500 ug/ml after 18 hr by cup-plate method; conditions: MTCC 1573, 18 h, read-out: DIZ
# Pseudomonas aeruginosa [36] = assay: Antibacterial activity against Pseudomonas aeruginosa MTCC 424 at 1000 ug/ml after 18 hr by cup-plate method; conditions: MTCC 424, 18 h, read-out: DIZ
# Micrococcus luteus [37] = assay: Antibacterial activity against Micrococcus luteus MTCC 1538 at 500 ug/ml after 18 hr by cup-plate method; conditions: MTCC 1538, 18 h, read-out: DIZ
# Bacillus subtilis [38] = assay: Antibacterial activity against Bacillus subtilis MTCC 441 at 1000 ug/ml after 18 hr by cup plate method; conditions: MTCC 441, 18 h, read-out: DIZ
# Bacillus subtilis [39] = assay: Antibacterial activity against Bacillus subtilis MTCC 441 at 1500 ug/ml after 18 hr by cup plate method; conditions: MTCC 441, 18 h, read-out: DIZ
# Aspergillus niger [40] = assay: Antifungal activity against Aspergillus niger MTCC 2546 after 24 hr by broth dilution method; conditions: MTCC 2546, 24 h
# Aspergillus niger [41] = assay: Antifungal activity against Aspergillus niger MTCC 2546 at 1500 ug/ml after 18 hr by cup-plate method; conditions: MTCC 2546, 18 h, read-out: DIZ
# Escherichia coli [42] = assay: Antibacterial activity against Escherichia coli MTCC 1573 at 1000 ug/ml after 18 hr by cup-plate method; conditions: MTCC 1573, 18 h, read-out: DIZ
# Aspergillus niger [43] = assay: Antifungal activity against Aspergillus niger MTCC 2546 at 500 ug/ml after 18 hr by cup-plate method; conditions: MTCC 2546, 18 h, read-out: DIZ
# Staphylococcus aureus [44] = assay: Antibacterial activity against Staphylococcus aureus MTCC 1430 at 200 ug/ml after 18 hr by cup-plate method; conditions: MTCC 1430, 18 h, read-out: DIZ
structure (smiles),measurement,setting,value
CCn1cc(C(=O)O)c(=O)c2cc(F)c(N3CCNCC3)cc21 [NORFLOXACIN],MIC,Escherichia coli [1],50 µg/mL
same,zone of inhibition at 100 µg/mL,Bacillus pumilus [2],28 mm
same,zone of inhibition at 100 µg/mL,Pseudomonas aeruginosa [3],28 mm
same,MIC,Pseudomonas fluorescens [4],50 µg/mL
same,MIC,Micrococcus luteus [5],50 µg/mL
same,MIC,Bacillus subtilis [6],50 µg/mL
same,zone of inhibition at 100 µg/mL,Bacillus subtilis [7],23 mm
same,MIC,Staphylococcus aureus [8],50 µg/mL
same,MIC,Pseudomonas aeruginosa [9],50 µg/mL
same,zone of inhibition at 100 µg/mL,Escherichia coli [10],36 mm
same,zone of inhibition at 100 µg/mL,Pseudomonas fluorescens [11],25 mm
same,MIC,Bacillus pumilus [12],50 µg/mL
same,zone of inhibition at 100 µg/mL,Micrococcus luteus [13],26 mm
same,zone of inhibition at 100 µg/mL,Staphylococcus aureus [14],25 mm
OC(Cn1cncn1)(Cn1cncn1)c1ccc(F)cc1F [FLUCONAZOLE],zone of inhibition at 100 µg/mL,Penicillium chrysogenum [15],16 mm
same,zone of inhibition at 100 µg/mL,Aspergillus niger [16],28 mm
Clc1ccc(/N=C\c2cccc3ccccc23)cc1,MIC,Escherichia coli [1],500 µg/mL
same,MIC,Penicillium chrysogenum [17],500 µg/mL
same,zone of inhibition at 500 µg/mL,Penicillium chrysogenum [18],11 mm
same,zone of inhibition at 1000 µg/mL,Aspergillus niger [19],13 mm
same,zone of inhibition at 200 µg/mL,Pseudomonas fluorescens [20],12 mm
same,zone of inhibition at 1500 µg/mL,Penicillium chrysogenum [21],14 mm
same,zone of inhibition at 1000 µg/mL,Staphylococcus aureus [22],18 mm
same,zone of inhibition at 1000 µg/mL,Penicillium chrysogenum [23],13 mm
same,zone of inhibition at 1000 µg/mL,Pseudomonas fluorescens [24],17 mm
same,MIC,Pseudomonas fluorescens [4],300 µg/mL
same,zone of inhibition at 1500 µg/mL,Micrococcus luteus [25],25 mm
same,zone of inhibition at 1000 µg/mL,Bacillus pumilus [26],9 mm
same,zone of inhibition at 500 µg/mL,Pseudomonas fluorescens [27],14 mm
same,MIC,Micrococcus luteus [5],300 µg/mL
same,MIC,Bacillus subtilis [6],500 µg/mL
same,MIC,Staphylococcus aureus [8],400 µg/mL
same,MIC,Pseudomonas aeruginosa [9],500 µg/mL
same,zone of inhibition at 1000 µg/mL,Micrococcus luteus [28],21 mm
same,zone of inhibition at 100 µg/mL,Pseudomonas fluorescens [11],11 mm
same,zone of inhibition at 1500 µg/mL,Bacillus pumilus [29],10 mm
same,zone of inhibition at 500 µg/mL,Staphylococcus aureus [30],15 mm
same,MIC,Bacillus pumilus [12],500 µg/mL
same,zone of inhibition at 1500 µg/mL,Pseudomonas fluorescens [31],19 mm
same,zone of inhibition at 100 µg/mL,Micrococcus luteus [13],13 mm
same,zone of inhibition at 1500 µg/mL,Staphylococcus aureus [32],21 mm
same,zone of inhibition at 200 µg/mL,Micrococcus luteus [33],16 mm
same,zone of inhibition at 100 µg/mL,Staphylococcus aureus [14],11 mm
same,zone of inhibition at 1500 µg/mL,Pseudomonas aeruginosa [34],14 mm
same,zone of inhibition at 1500 µg/mL,Escherichia coli [35],17 mm
same,zone of inhibition at 1000 µg/mL,Pseudomonas aeruginosa [36],13 mm
same,zone of inhibition at 500 µg/mL,Micrococcus luteus [37],19 mm
same,zone of inhibition at 1000 µg/mL,Bacillus subtilis [38],15 mm
same,zone of inhibition at 1500 µg/mL,Bacillus subtilis [39],17 mm
same,MIC,Aspergillus niger [40],500 µg/mL
same,zone of inhibition at 1500 µg/mL,Aspergillus niger [41],15 mm
same,zone of inhibition at 1000 µg/mL,Escherichia coli [42],11 mm
same,zone of inhibition at 500 µg/mL,Aspergillus niger [43],11 mm
same,zone of inhibition at 200 µg/mL,Staphylococcus aureus [44],13 mm
